The results in this text go back to patent publication US6518262B1, “22R-hydroxycholesta-8, 14-diene derivatives for the inhibition of meiosis” (Akzo Nobel N.V., priority 1999, dated 2003).

For experiment [1], the system named is cumulus enclosed oocytes (CEO). Description: Oocyte assay, antagonistic testing, inhibition of 22S-hydroxy-FF-Mas induced maturation in cumulus enclosed oocytes (CEO assay). The note with it: 22S-hydroxy-FF-Mas 5 μM, control (22S-hydroxy-FF-Mas alone) in brackets. The experiment is classed as cell-based, mice (B6D2-F1, strain C57BL×DBA). As for the experimental part:
The meiosis inhibiting activity of the 22R-hydroxycholesta-8,14-diene derivatives of the invention is measured in an in vitro oocyte assay as the ability to inhibit the FF-Mas or 22S-hydroxy-FF-Mas induced maturation, in hypoxanthine media, in denuded oocytes (DO) or cumulus enclosed oocytes (CEO), respectively. Natural resumption of meiosis can be mimicked in vitro by addition of FF-Mas or other agonists to the culture medium containing hypoxanthine. The antagonistic activity of the compounds is measured as the ability to inhibit the FF-Mas or 22S-hydroxy-FF-Mas induced oocyte maturation in denuded oocytes or cumulus enclosed oocytes, respectively, in vitro. Ovaries are obtained from immature female mice (B6D2-F1, strain C57BL×DBA). At the age of 19, 20 or 21 days the mice are injected subcutaneously with a single dose of 20 IU follicle stimulating hormone (Humegon, Organon, The Netherlands) in saline. Forty-eight hours after follicle stimulating hormone injection mice are killed by cervical dislocation. The ovaries are removed, freed of extraneous tissue and placed in a multidish containing 0.5 ml preparation medium at 37° C. L-15 Leibovitz medium (Gibco, pH 7.3±0.1) supplemented with bovine serum albumin (3 mg·ml^−1), L-glutamine (0.23 mM), sodium pyruvate (2 mM) and hypoxanthine (4 mM) is used as preparation medium. The antral follicles of the ovaries are punctured under a dissecting microscope using two 27-gauge needles attached to two 1 ml syringes. […] At t=0 the number of oocytes with intact germinal vesicles (GV) or germinal vesicle break-down (GVBD) is counted under an inverted microscope with differential interference contrast equipment. […] At the end of the culture period the number of oocytes with GV or GVBD per group is counted. For statistical analysis the percentage germinal vesicle breakdown is calculated for each group in one block. These percentages are subjected to arcsin transformation, and differences between control and test compounds are analyzed by an ANOVA test for a randomized block design. […]

The test system of experiment [2] is cumulus enclosed oocytes (CEO). In words: Oocyte assay, agonistic testing, cumulus enclosed oocytes (CEO assay). The experiment is classed as cell-based, mice (B6D2-F1, strain C57BL×DBA). The note with it: compound 5 μM, hypoxanthine medium, 22 hours culture, control value in brackets. The text has this:
Oocytes arrested in meiosis contain diffused chromosomes which are surrounded by an intact nuclear envelope known as the germinal vesicle (GV). Upon reinitiation of meiosis by the midcycle gonadotropin surge, the chromosomes recondense and the GV breaks down (GVBD). In vivo, the oocyte is exposed to hypoxanthine (HX), which maintains the oocyte arrested in the meiotic prophase. This meiotic arrest can be mimicked in vitro by addition of hypoxanthine to the culture medium. The agonistic activity of meiosis activating substances is measured as the ability to overcome the hypoxanthine maintained meiotic arrest in denuded oocytes (DO) or cumulus enclosed oocytes (CEO), i.e. as the ability to induce meiotic resumption in vitro.
Ovaries are obtained from immature female mice (B6D2-F1, strain C57BL×DBA). At the age of 19, 20 or 21 days the mice are injected subcutaneously with a single dose of 20 IU follicle stimulating hormone (Humegon, Organon, The Netherlands) in saline.
Forty-eight hours after follicle stimulating hormone injection mice are killed by cervical dislocation. The ovaries are removed, freed of extraneous tissue and placed in a multidish containing 0.5 ml preparation medium at 37° C. L-15 Leibovitz medium (Gibco, pH 7.3±0.1) supplemented with bovine serum albumin (3 mg·ml^−1), L-glutamine (0.23 mM), sodium pyruvate (2 mM) and hypoxanthine (4 mM) is used as preparation medium. […]
The oocyte assay is performed in 3 blocks, each block represents the ovaries of one mouse (randomized block design). […] At t=0 the number of oocytes with intact germinal vesicles (GV) or germinal vesicle break-down (GVBD) is counted under an inverted microscope with differential interference contrast equipment. […] At the end of the culture period the number of oocytes with GV or GVBD per group is counted. For statistical analysis the percentage germinal vesicle breakdown is calculated for each group in one block. These percentages are subjected to arcsin transformation, and differences between control and test compounds are analyzed by an ANOVA test for a randomized block design. […]

As to `CC(C)CC[C@@H](O)[C@@H](C)[C@H]1CC=C2C3=C(CC[C@@]21C)[C@@]1(C)CC[C@H](O)C(C)(C)[C@@H]1CC3` [Example 1, (3β,5α,20S,22R)-4,4-Dimethylcholesta-8,14-diene-3,22-diol], in experiment [1] (compound tested 5 M), the “% GVBD CEO assay exp.” value is 10(93)^3%. As for `CC(C)=CC[C@@H](O)[C@@H](C)[C@H]1CC=C2C3=C(CC[C@@]21C)[C@@]1(C)CC[C@H](O)C(C)(C)[C@@H]1CC3` [Example 2, (3β,5α,20S,22R)-4,4-Dimethylcholesta-8,14,24-triene-3,22-diol], the “% GVBD CEO assay exp.” value is 0(84)^4% in experiment [1] and 2(2) % in experiment [2].
